# Laboratory results taken from patent US10189859B2, “Derivatives of 6-(2,3-dichlorophenyl)-1,2,4-triazin-5-amine” (Nektar Therapeutics, priority 2013, dated 2019).
# Where “and” joins values, the source holds several entries; their conditions need not be identical. Equal entries are not always repeated. Structures can show the parent of a compound that is named as a salt. Where two headings read alike, the source gives them in different places.
# Legend:
# [1] = target: Nav1.7 sodium channels (human SCN9A gene) (Homo sapiens (Human), UniProt Q15858); assay: Automated patch clamp (IonWorks Barracuda) of Nav1.7 stably expressed in CHO cells; format: cell-based
# Sequence of Nav1.7 sodium channels (human SCN9A gene) (Q15858 whole entry): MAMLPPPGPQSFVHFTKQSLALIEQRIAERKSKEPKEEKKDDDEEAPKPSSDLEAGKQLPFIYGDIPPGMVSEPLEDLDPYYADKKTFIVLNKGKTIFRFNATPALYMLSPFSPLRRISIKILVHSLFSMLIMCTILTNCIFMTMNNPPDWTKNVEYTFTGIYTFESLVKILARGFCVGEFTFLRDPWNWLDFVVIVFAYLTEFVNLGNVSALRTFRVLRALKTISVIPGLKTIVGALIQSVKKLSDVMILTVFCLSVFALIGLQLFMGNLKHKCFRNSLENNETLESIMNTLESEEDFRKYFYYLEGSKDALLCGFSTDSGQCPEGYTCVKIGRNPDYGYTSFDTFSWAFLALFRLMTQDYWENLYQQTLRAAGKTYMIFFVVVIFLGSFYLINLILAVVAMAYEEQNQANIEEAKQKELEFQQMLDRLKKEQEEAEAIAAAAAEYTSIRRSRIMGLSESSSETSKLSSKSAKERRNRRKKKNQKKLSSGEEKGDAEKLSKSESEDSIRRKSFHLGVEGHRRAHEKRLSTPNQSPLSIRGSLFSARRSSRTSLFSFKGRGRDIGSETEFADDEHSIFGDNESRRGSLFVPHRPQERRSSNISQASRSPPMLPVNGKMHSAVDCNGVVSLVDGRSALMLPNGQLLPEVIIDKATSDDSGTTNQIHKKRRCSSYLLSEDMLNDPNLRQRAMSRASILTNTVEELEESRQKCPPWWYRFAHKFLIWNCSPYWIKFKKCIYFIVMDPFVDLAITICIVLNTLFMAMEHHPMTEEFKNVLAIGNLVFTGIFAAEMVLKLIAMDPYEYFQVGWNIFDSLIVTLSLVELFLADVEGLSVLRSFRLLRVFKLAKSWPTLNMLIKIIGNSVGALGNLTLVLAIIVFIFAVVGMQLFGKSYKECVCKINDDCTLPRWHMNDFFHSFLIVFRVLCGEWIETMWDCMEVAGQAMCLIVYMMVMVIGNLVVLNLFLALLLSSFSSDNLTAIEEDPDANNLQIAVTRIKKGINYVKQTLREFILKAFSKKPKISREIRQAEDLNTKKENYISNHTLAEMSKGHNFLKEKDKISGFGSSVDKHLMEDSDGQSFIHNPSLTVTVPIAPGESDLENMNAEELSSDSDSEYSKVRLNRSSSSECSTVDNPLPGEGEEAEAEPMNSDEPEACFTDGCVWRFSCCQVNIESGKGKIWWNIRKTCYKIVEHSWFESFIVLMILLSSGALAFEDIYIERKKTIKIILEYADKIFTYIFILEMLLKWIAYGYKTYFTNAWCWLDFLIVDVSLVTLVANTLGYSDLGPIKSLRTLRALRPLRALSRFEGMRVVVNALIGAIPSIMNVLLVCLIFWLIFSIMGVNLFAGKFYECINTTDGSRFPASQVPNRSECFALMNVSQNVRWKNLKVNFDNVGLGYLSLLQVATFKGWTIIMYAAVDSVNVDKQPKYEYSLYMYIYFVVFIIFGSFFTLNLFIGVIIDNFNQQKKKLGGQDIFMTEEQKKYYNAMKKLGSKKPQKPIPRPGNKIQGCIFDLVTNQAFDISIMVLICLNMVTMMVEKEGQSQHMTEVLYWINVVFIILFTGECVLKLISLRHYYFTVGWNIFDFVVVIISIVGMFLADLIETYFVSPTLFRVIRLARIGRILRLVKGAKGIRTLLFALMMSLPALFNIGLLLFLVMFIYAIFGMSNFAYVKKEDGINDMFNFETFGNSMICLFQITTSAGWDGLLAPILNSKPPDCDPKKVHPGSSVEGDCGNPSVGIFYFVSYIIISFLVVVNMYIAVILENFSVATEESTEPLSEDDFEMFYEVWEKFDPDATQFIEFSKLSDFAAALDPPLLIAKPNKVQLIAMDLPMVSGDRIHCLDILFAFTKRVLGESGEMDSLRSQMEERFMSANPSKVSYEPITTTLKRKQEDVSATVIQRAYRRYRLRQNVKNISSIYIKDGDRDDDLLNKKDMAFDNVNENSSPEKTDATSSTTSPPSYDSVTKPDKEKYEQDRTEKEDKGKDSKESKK
# Protocol: The potencies of the compounds provided herein to block specific Na+ channels was measured using automated patch clamp electrophysiologically of Nav1.7 sodium channels (human SCN9A gene) stably expressed in CHO cells using the IonWorks™ Barracuda system. Currents were measured from the whole cell patch configuration. From a holding potential of −90 mV, membranes were subjected to a 200 ms pre-pulse to −120 mV, then pulsed to 0 mV to measure blockade of the tonic (resting) state. Inactivated state block was elicited by repolarization to −100 mV (20 ms pulse duration), followed by depolarization to 0 mV (20 ms pulse duration). Peak inward Na+ currents were measured in the presence of vehicle or various concentrations of the test compound to determine the percent block of current. Concentration-response relationships were used to calculate IC50 values for the illustrative compounds.
# [2] = Pharmacokinetics after intravenous or oral dosing, plasma LC/MS/MS; format: in vivo; details: fasted male Sprague Dawley rats
# Protocol: Fasted, male Sprague Dawley rats were dosed intravenously or orally. Blood samples were collected at pre-determined time points and plasma was separated. Test article concentrations were determined in plasma by a LC/MS/MS method. Non compartmental analysis was performed to estimate the area under the plasma concentration vs. time curve (AUC). Clearance parameters (CL), bioavailabilities (F) and half-lives were calculated.
# AFP model = assay: AFP animal model; format: in vivo
# Excerpt: The efficacy of the compounds when evaluated in additional well-known animal models, AFP, RR, and hyperalgesia, was also explored.
# Na+ channels = assay: Blockage of Na+ channels, whole-cell patch clamp, isolated dorsal root ganglion cells; format: cell-based, rat
# Protocol: Currents are measured using the whole-cell variant of the patch clamp method. INa is elicited by a pulse to −20 mV from a holding potential of −120 mV or −70 mV to measure blockade at the inactivated state (pulse duration of 40 ms), Peak inward current is measured for INa. Pacing rates of […] are examined. Increasing concentrations of test compounds are added to the cells in a cumulative manner to generate a concentration-response relationship which is utilized to calculate the IC50.
# [3] = inactivated state block, CHO cells, read-out: Inactivated state IC50
# [4] = tonic (resting) state block, CHO cells, read-out: Tonic state IC50
# [5] = AFP, Ph 2, timepoint 0.5 h, minimum effective dose
# [6] = read-out: Inactivated state IC50
Compound,"IC50 [1, 3]","IC50 [1, 4]",exposure after oral dosing (qualitative ranking) [2],"IC50 [1, 6]",IC50 ([1]; read-out: Tonic state IC50) [µM],also measured
"Nc1nc(N2CCNCC2)nnc1-c1cccc(Cl)c1Cl [Compound 79, 6-(2,3-dichlorophenyl)-3-(piperazin-1-yl)-1,2,4-triazin-5-amine]",95.3 µM,> 200 µM,best exposure after oral dosing,,,
"CC(C)(CO)Nc1nnc(-c2cccc(Cl)c2Cl)c(N)n1 [Compound 1, 2-((5-amino-6-(2,3-dichlorophenyl)-1,2,4-triazin-3-yl)amino)-2-methylpropan-1-ol]",60.1 µM and < 50 µM,> 200 µM and 197 µM,,,,"MED (mg/kg) (AFP model; [5]): 450 (Ph 2) mg/kg; ED50 (AFP model; AFP, Ph 2, timepoint 0.5 h, read-out: ED50): 589 mg/kg"
"CC(C)(CO)N1CCN(c2nnc(-c3cccc(Cl)c3Cl)c(N)n2)CC1 [Compound 90, 2-(4-(5-amino-6-(2,3-dichlorophenyl)-1,2,4-triazin-3-yl)piperazin-1-yl)-2-methylpropan-1-ol]",,,best exposure after oral dosing,56.2 µM,183,
"Nc1nc(N2CCN3C(=O)OC[C@@H]3C2)nnc1-c1cccc(Cl)c1Cl [Compound 128, (S)-7-(5-amino-6-(2,3-dichlorophenyl)-1,2,4-triazin-3-yl)tetrahydro-1H-oxazolo[3,4-a]pyrazin-3(5H)-one HCl salt]",,,best exposure after oral dosing,> 300 µM,> 200,pharmacokinetics (qualitative ranking of the compounds tested) [2]: most favorable pharmacokinetics
"Nc1nc(N2CCN(CCOCCO)CC2)nnc1-c1cccc(Cl)c1Cl [Compound 201, 2-(2-(4-(5-amino-6-(2,3-dichlorophenyl)-1,2,4-triazin-3-yl)piperazin-1-yl)ethoxy)ethanol]",202 µM,> 200 µM,best exposure after oral dosing,,,
"CC(C)OC[C@H](O)CN1CCN(c2nnc(-c3cccc(Cl)c3Cl)c(N)n2)CC1 [Compound 73, (R)-1-(4-(5-Amino-6-(2,3-dichlorophenyl)-1,2,4-triazin-3-yl)piperazin-1-yl)-3-isopropoxypropan-2-ol]",< 50 µM,179 µM,best exposure after oral dosing,,,
"COC[C@H](O)CN1CCN(c2nnc(-c3cccc(Cl)c3Cl)c(N)n2)CC1 [Compound 96, (R)-1-(4-(5-amino-6-(2,3-dichlorophenyl)-1,2,4-triazin-3-yl)piperazin-1-yl)-3-methoxypropan-2-ol]",,,best exposure after oral dosing,< 50 µM,> 200,pharmacokinetics (qualitative ranking of the compounds tested) [2]: most favorable pharmacokinetics
"Nc1nc(N2CCN(CC(O)CO)CC2)nnc1-c1cccc(Cl)c1Cl (centres unmarked) [Compound 92, 3-(4-(5-amino-6-(2,3-dichlorophenyl)-1,2,4-triazin-3-yl)piperazin-1-yl)propane-1,2-diol]",> 300 µM,> 200 µM,best exposure after oral dosing,,,
"Nc1nc(N2CCN(C[C@H](O)CCl)CC2)nnc1-c1cccc(Cl)c1Cl [Compound 207, (S)-1-(4-(5-amino-6-(2,3-dichlorophenyl)-1,2,4-triazin-3-yl)piperazin-1-yl)-3-chloropropan-2-ol]",107 µM and 133 µM,> 200 µM,best exposure after oral dosing,,,ED50 (AFP model; 0.5 h): 476 mg/kg; MED (mg/kg) (AFP model; [5]): 300 (Ph 2) mg/kg
"CC(CO)N1CCN(c2nnc(-c3cccc(Cl)c3Cl)c(N)n2)CC1 (centres unmarked) [Compound 89, 2-(4-(5-amino-6-(2,3-dichlorophenyl)-1,2,4-triazin-3-yl)piperazin-1-yl)propan-1-ol]",66.6 µM,> 200 µM,best exposure after oral dosing,,,
"COC[C@@H](O)CN1CCN(c2nnc(-c3cccc(Cl)c3Cl)c(N)n2)CC1 [Compound 98, (S)-1-(4-(5-amino-6-(2,3-dichlorophenyl)-1,2,4-triazin-3-yl)piperazin-1-yl)-3-methoxypropan-2-ol]",,,best exposure after oral dosing,57.5 µM and < 50 µM,> 200,
"CS(=O)(=O)CCN1CCN(c2nnc(-c3cccc(Cl)c3Cl)c(N)n2)CC1 [Compound 202, 6-(2,3-dichlorophenyl)-3-(4-(2-(methylsulfonyl)ethyl)piperazin-1-yl)-1,2,4-triazin-5-amine]",,,best exposure after oral dosing,> 300 µM,> 200,
"CCOC[C@H](O)CN1CCN(c2nnc(-c3cccc(Cl)c3Cl)c(N)n2)CC1 [Compound 55, (R)-1-(4-(5-Amino-6-(2,3-dichlorophenyl)-1,2,4-triazin-3-yl)piperazin-1-yl)-3-ethoxypropan-2-ol]",62.3 µM,> 200 µM,best exposure after oral dosing,,,
"Nc1nc(N2CCN3C(=O)COC[C@H]3C2)nnc1-c1cccc(Cl)c1Cl [Compound 130, (R)-8-(5-amino-6-(2,3-dichlorophenyl)-1,2,4-triazin-3-yl)hexahydropyrazino[2,1-c][1,4]oxazin-4(3H)-one HCl salt]",,,best exposure after oral dosing,204 µM,> 200,pharmacokinetics (qualitative ranking of the compounds tested) [2]: most favorable pharmacokinetics
"Nc1nc(N2CCN(CCO)CC2)nnc1-c1cccc(Cl)c1Cl [Compound 200, 2-(4-(5-amino-6-(2,3-dichlorophenyl)-1,2,4-triazin-3-yl)piperazin-1-yl)ethanol]",120 µM,> 200 µM,best exposure after oral dosing,,,
"Nc1nc(NCCOCCOCCOC(F)(F)F)nnc1-c1cccc(Cl)c1Cl [Compound 167, 6-(2,3-dichlorophenyl)-N^3-(2-(2-(2-(trifluoromethoxy)ethoxy)ethoxy)ethyl)-1,2,4-triazine-3,5-diamine]",< 50 µM,108 µM and 91.5 µM and 130 µM,,,,"MED (AFP model; AFP, +ABT, timepoint 0.5 h, minimum effective dose): 100 mg/kg"
"COCCOCCOCC(C)Nc1nnc(-c2cccc(Cl)c2Cl)c(N)n1 (centres unmarked) [Compound 188, 6-(2,3-dichlorophenyl)-N3-(1-(2-(2-methoxyethoxy)ethoxy)propan-2-yl)-1,2,4-triazine-3,5-diamine.HCl]",,,best exposure after oral dosing,,,
"Nc1nc(N2CC(N)C2)nnc1-c1cccc(Cl)c1Cl [Compound 126, 5-amino-3-N-(3-aminoazetidinyl) lamotrigine diHCl salt]",,,best exposure after oral dosing,,,
"Cl.Cl.Nc1nc(N2CCN(C[C@H](O)COCC(F)(F)F)CC2)nnc1-c1cccc(Cl)c1Cl [Compound 95, (S)-1-(4-(5-amino-6-(2,3-dichlorophenyl)-1,2,4-triazin-3-yl)-piperazin-1-yl)-3-(2,2,2-trifluoroethoxy)-propan-2-ol-2HCl]",,,best exposure after oral dosing,,,"MED (mg/kg) (AFP model; AFP, Ph 1, timepoint 0.5 h, 500 mg/kg as 2 doses @ 250 mg/kg): 500 (Ph 1) mg/kg; pharmacokinetics (qualitative ranking of the compounds tested) [2]: most favorable pharmacokinetics"
"Nc1nc(N2CCN3C(=O)OC[C@H]3C2)nnc1-c1cccc(Cl)c1Cl [Compound 127, (R)-7-(5-amino-6-(2,3-dichlorophenyl)-1,2,4-triazin-3-yl)tetrahydro-1H-oxazolo[3,4-a]pyrazin-3(5H)-one]",,,best exposure after oral dosing,> 300 µM,> 200,pharmacokinetics (qualitative ranking of the compounds tested) [2]: most favorable pharmacokinetics
"COC[C@@H](O)CN1CCN(c2nnc(-c3cccc(Cl)c3Cl)c(N)n2)CC1 [Compound 97, (S)-1-(4-(5-amino-6-(2,3-dichlorophenyl)-1,2,4-triazin-3-yl)piperazin-1-yl)-3-methoxypropan-2-ol]",90.5 µM,,best exposure after oral dosing,< 50 µM and 82.2 µM,> 200,"IC50 (Na+ channels; Vh −70 mV (inactivated state), pacing 0.1 Hz, read-out: IC50 (μM) 0.1 Hz): 39.5 µM; IC50 (Na+ channels; Vh −70 mV (inactivated state), pacing 3 Hz, read-out: IC50 (μM) 3 Hz): 21.5 µM; IC50 (Na+ channels; Vh −70 mV (inactivated state), pacing 10 Hz, read-out: IC50 (μM) 10 Hz): 16.5 µM; IC50 (Na+ channels; Vh −120 mV, pacing 0.1 Hz, read-out: IC50 (μM) 0.1 Hz): > 100 µM; IC50 (Na+ channels; Vh −120 mV, pacing 3 Hz, read-out: IC50 (μM) 3 Hz): > 100 µM; IC50 (Na+ channels; Vh −120 mV, pacing 10 Hz, read-out: IC50 (μM) 10 Hz): 74.4 µM; pharmacokinetics (qualitative ranking of the compounds tested) [2]: most favorable pharmacokinetics"
